Like-named read-outs stand apart in the source and are kept apart here.
What was measured:
Format in all cases: cell-based
E-cadherin = experiment: Western blot of EMT marker E-cadherin in growth factor-treated NBT-II cells; conditions: NBT-II cells, 0.5, 2 and 8 μM compound overnight, then EGF, HGF or IGF-1 for 24 h (FIG. 7)
Protocol: NBT-II cells were treated with compounds at 0.5, 2 and 8 μM overnight and incubated with a growth factor for 24 h. Cells were lysed with protease/phosphatase inhibitor-containing RIPA buffer. Proteins are separated in 8% polyacrylamide gels and transferred to PDVF membranes. Membranes were blocked in 5% BSA and incubated at 4° C. overnight with MMP-13 (Millipore), E-cadherin (BD) and α-tubulin (Sigma) primary antibodies. Membranes were then developed with HRP-conjugated secondary antibody (Amersham) and ECL substrate (Millipore).
The possibilities that ALK5, MEK, PI3K and SRC targeting compounds could modulate the expression of EMT markers, such as E-cadherin and matrix metalloproteinase-13 (MMP-13) under EMT-activated conditions were also investigated (FIG. 7). With the exception of P13K inhibitor GDC-0941, the compounds in general abrogated MMP-13 expression in growth factor-treated samples, PI3K inhibition has been previously shown to augment MMP-13 expression. […] These findings are consistent with previous reports showing that ALK5, MEK and SRC play a role in cell motility and tumor progression, while PI3K predominately regulates cell proliferation.

[1] = tested on: HGF-induced EMT in NBT-II cells; experiment: EMT spot migration assay, HGF-induced; conditions: for IC50: HGF-induced EMT (4 ng/ml HGF), CDR dose response from 6.67 μM, read-out: Cell Dispersion IC 50, HGF
Protocol: (§1) NBT-II cells were stably transfected with mcherry-fluorescent H2B and maintained in DMEM supplemented with 10% fetal bovine serum (FBS, Thermo Scientific), 1 μg/ml puromycin (Sigma) and 100 units/ml penicillin-streptomycin (1× pen-strep, Invitrogen). Cells were grown to 80% confluency in tissue culture flasks prior to plating. Cells were trypsinized and concentrated to a density of 5×10^6 cell/ml in CO2-independent medium (Invitrogen) supplemented with 10% FBS. The cell suspension was then evenly dispersed into the wells of two columns of a 96-well V-bottom plate. Using a robotic liquid-handling station (Bravo, Agilent Technologies), 0.5 μl of cell suspension was transferred from the two columns of the cell suspension-loaded plate and deposited into the center of the wells of two columns of a 96-well clear bottom, black assay plate (Corning). This process was repeated six times so that all 96 wells of the assay plate were deposited with a cell suspension spot. The plate was then sealed to minimize evaporation of the cell suspension spots and transferred to a 37° C., 5% CO2 incubator to allow for cells to attach to the culture surface. After 1 hour, the plate was gently washed with medium once to remove unattached cells, refreshed with 100 μl of assay medium (DMEM supplemented with 10% FBS and 1× pen-strep), and then further incubated to allow for cell-cell contacts to establish in the cell colonies.
(§2) Four tiled, non-overlapping images were acquired around the center of each well, and were then stitched together during image analysis to generate a montage covering an area of 3.2 mm×3.2 mm. These images (T1) represent the initial state of the cell colonies before EMT induction.
(§3) After the T1 images were acquired, 1 μl of test compounds were transferred from compound stock plates and added to the assay plates. Appropriate negative controls (1 μl DMSO) and positive controls (1 μl 1.0 mM compound in DMSO) were also added into columns 1 and 12 of each assay plate, respectively. […] The cultures were then further incubated overnight.
(§4) The next day, 50 μl of growth factor-containing medium was added to each well of the assay-plates. For each of the growth factor-induced EMT spot migration assays, the final growth factor concentrations in each well is optimized to be 20 ng/ml EGF (Sigma), 4 ng/ml HGF (Calbiochem) or 150 ng/ml IGF-1 (R&D Systems), respectively. The cultures were then incubated for another 24 hours, to allow for EMT and sufficient cell motility/dispersion to occur in the cell colonies.
(§5) Finally, the cell colonies were imaged again using the microplate imager, as described above. These images (T2) represent the final state of the cell colonies after compound treatment and EMT induction. The acquired T1 and T2 image sets for each assay plate were then sent for image analysis.
(§6) The acquisition of each well was obtained by four adjacent field images with no interstice in between. Each field image was loaded and nuclei were initially segmented independently of other fields to prevent artifact at the field border. Nuclei segmentation was achieved by combining a wavelet transform which is robust to noise and unhomogeneous background, and a watershed algorithm based on intensities to split nuclei clusters. Mask of nuclei segmentation of the different fields were then stitched together in order to obtain a large segmentation of the whole well. Cell bodies were estimated by applying a morphological dilation on the nucleus segmentation using a disk of 30 pixels (48 μm) in diameter. In cells that are contiguous, such as in a cell colony, nuclei segmentation dilation will result in the formation of continuous region areas with surrounding cells which can then be identified as colonies.
(§7) Total cell number and spreading coefficient values for each well were then exported into an Excel sheet.

[2] = tested on: EGF-induced EMT in NBT-II cells; experiment: EMT spot migration assay, EGF-induced; conditions: for IC50: read-out: Cell Dispersion IC 50, EGF; for Cell dispersion pattern at T2 (FIG. 1D): 6.67 μM compound and EGF
Protocol: as §1, §2, §3, §4, §5, §6, §7

[3] = tested on: IGF-1-induced EMT in NBT-II cells; experiment: EMT spot migration assay, IGF-1-induced; conditions: IGF-1-induced EMT (150 ng/ml IGF-1), CDR dose response from 6.67 μM, read-out: Cell Dispersion IC 50, IGF-1
Protocol: as §1, §2, §3, §4, §5, §6, §7

MMP-13 = experiment: Western blot of EMT marker MMP-13 in growth factor-treated NBT-II cells; conditions: NBT-II cells, 0.5, 2 and 8 μM compound overnight, then growth factor for 24 h (FIG. 7)
[4] = EGF-induced EMT (20 ng/ml EGF), NBT-II cells, CDR dose response from 6.67 μM

Row | Compound | E-cadherin expression (E-cadherin) | IC50 [1] [nM] | IC50 [2, 4] [nM] | IC50 [3] [nM] | IC50 [2] [nM] | MMP-13 expression (MMP-13) | Cell dispersion pattern at T2 (FIG. 1D) ([2]; NBT-II cells) | Inhibition of HGF-induced EMT (growth factor specificity) ([1]; spot migration assay)
1 | Cc1cccc(-c2nn(C(=S)Nc3ccccc3)cc2-c2ccnc3ccccc23)n1 [A83-01] | restored the E-cadherin protein levels | 130 | 69 | 120 | – | – | – | –
2 | COc1cc2ncnc(Nc3cccc(Cl)c3)c2cc1OC [AG1478] | – | > 5000 | 330 | > 5000 | – | – | – | –
3 | Cn1cnc2c(F)c(Nc3ccc(Br)cc3Cl)c(C(=O)NOCCO)cc21 [AZD6244] | – | 790 | 840 | 880 | – | – | – | –
4 | Cc1cc(N2CCOCC2)cc2[nH]c(-c3c(NC[C@@H](O)c4cccc(Cl)c4)cc[nH]c3=O)nc12 [BMS-536924] | – | 2300 | > 5000 | 170 | – | – | – | –
5 | O=C(NOCC1CC1)c1ccc(F)c(F)c1Nc1ccc(I)cc1Cl [CI-1040] | – | 820 | 1000 | 1200 | – | – | – | –
6 | NC(=O)c1ccc(-c2nc(-c3ccc4c(c3)OCCO4)c(-c3ccccn3)[nH]2)cc1 [D4476] | – | 1400 | 1100 | 1900 | – | – | – | –
7 | C#Cc1cccc(Nc2ncnc3cc(OCCOC)c(OCCOC)cc23)c1 [Erlotinib] | – | > 5000 | – | > 5000 | 950 | – | – | –
8 | CS(=O)(=O)N1CCN(Cc2cc3nc(-c4cccc5[nH]ncc45)nc(N4CCOCC4)c3s2)CC1 [GDC-0941] | restored the E-cadherin protein levels | 380 | 740 | 500 | – | exception | – | –
9 | Cn1cc(-c2ccc3nnc(C(F)(F)c4ccc5ncccc5c4)n3n2)cn1 [JNJ-38877605] | – | 94 | > 5000 | > 5000 | – | – | – | –
10 | c1ccc(-c2[nH]ncc2-c2ccnc3ccccc23)nc1 [LY-364947] | – | 180 | 140 | 240 | – | – | – | –
11 | CS(=O)(=O)CCNCc1ccc(-c2ccc3ncnc(Nc4ccc(OCc5cccc(F)c5)c(Cl)c4)c3c2)o1 [Lapatinib] | – | > 5000 | 620 | > 5000 | – | – | – | –
12 | COc1cc2ncnc(Nc3cccc(Br)c3)c2cc1OC [PD153035] | – | > 5000 | 550 | > 5000 | – | – | pattern of inhibition | –
13 | CNc1cc2c(Nc3cccc(Br)c3)ncnc2cn1 [PD158780] | – | > 5000 | 1200 | > 5000 | – | – | – | –
14 | O=C(NOC[C@H](O)CO)c1ccc(F)c(F)c1Nc1ccc(I)cc1F [PD0325901] | augment E-cadherin expression | 20 | 31 | 8.9 | – | – | – | –
15 | OCCn1cc(-c2cnc3nnn(Cc4ccc5ncccc5c4)c3n2)cn1 [PF-04217903] | – | 55 | > 5000 | > 5000 | – | – | – | specifically inhibited HGF-induced EMT
16 | Oc1cccc(-c2nc(N3CCOCC3)c3oc4ncccc4c3n2)c1 [PI-103] | – | 380 | 680 | 400 | – | – | – | –
17 | COc1ccc2c(c1OC)N=C(NC(=O)c1cccnc1)N1CCN=C21 [PIK-90] | – | 400 | 950 | 620 | – | – | – | –
18 | Cc1ccc(-c2nn(C(C)(C)C)c3ncnc(N)c23)cc1 [PP1] | – | 2000 | 2300 | 1200 | – | – | pattern of inhibition | –
19 | NC(=O)c1ccc(-c2nc(-c3ccc4c(c3)OCO4)c(-c3ccccn3)[nH]2)cc1 [SB-431542] | – | 940 | 1600 | 820 | – | – | – | –
20 | Fc1ccc(Cl)cc1-c1nc(Nc2ccncc2)c2nccnc2n1 [SD-208] | – | 110 | 85 | 150 | – | – | – | –
21 | COc1cc2ncnc(Nc3ccc(O)c(Br)c3)c2cc1OC [WHI-P154] | – | > 5000 | 800 | > 5000 | – | – | – | –
22 | FC(F)c1nc2ccccc2n1-c1nc(N2CCOCC2)nc(N2CCOCC2)n1 [ZSTK474] | – | 410 | 850 | 660 | – | – | – | –
